In patent US7943774B2 (priority 2008, dated 2011):

What was measured:
log P (pH2.3) = assay type: physicochemical; conditions: reversed-phase HPLC column (C18)
Phytophthora infestans = experiment: whole plant or invertebrate; assay type: in vivo; conditions: in Solanum lycopersicum, 168 h, read-out: efficacy
Plasmopara viticola = experiment: Plasmopara test (grapevine)/protective; assay type: in vivo; conditions: 144 h, active compound concentration of 100 ppm, young grapevine plants sprayed, then inoculated, evaluation 6 days after inoculation, 0% = control, 100% = no infection, read-out: efficacy
Experimental: Plasmopara Test (Grapevine)/Protective
After the spray coating has dried on, the plants are inoculated with an aqueous spore suspension of Plasmopara viticola and then remain in an incubation cabin at about 20° C. and 100% relative atmospheric humidity for 1 day. The plants are then placed in a greenhouse at about 21° C. and an atmospheric humidity of about 90% for 4 days. The plants are then moistened and placed in an incubation cabin for 1 day.
Evaluation is carried out 6 days after the inoculation.

[1] = method [b]: LC-MS, acidic range, pH 2.7, 0.1% aqueous formic acid and acetonitrile

| Structure (SMILES) | chromatographic logP (log P (pH2.3); [1]) | pest or weed control at 500 ppm (Phytophthora infestans) [%] | chromatographic logP (log P (pH2.3); method [c]: LC-MS, neutral range, pH 7.8, 0.001 molar aqueous ammonium bicarbonate and acetonitrile) | pest or weed control at 100 ppm (Plasmopara viticola) [%] | chromatographic logP (log P (pH2.3); method [a]: HPLC, acidic range, pH 2.3, 0.1% aqueous phosphoric acid and acetonitrile) |
| --- | --- | --- | --- | --- | --- |
| Cc1cc(C(F)(F)F)nn1CC(=O)N1CCC(c2nc(/C=C\CC(C)c3ccccc3)cs2)CC1 (stereo not shown) [Example I-3, 2-[5-Methyl-3-(trifluoromethyl)-1H-pyrazol-1-yl]-1-(4-{4-[(1Z)-4-phenylpent-1-en-1-yl]-1,3-thiazol-2-yl}piperidin-1-yl)ethanone] | 4.84 | ≥ 70 | – | – | – |
| Cc1cc(C(F)(F)F)nn1CC(=O)N1CCC(c2nc(/C=C/c3cccc4ccccc34)cs2)CC1 [Example I-27, 2-[5-Methyl-3-(trifluoromethyl)-1H-pyrazol-1-yl]-1-(4-{4-[(E)-2-(naphthalen-1-yl)ethenyl]-1,3-thiazol-2-yl}piperidin-1-yl)ethanone] | 4.63 | ≥ 70 | – | – | – |
| Cc1cc(C(F)(F)F)nn1CC(=O)N1CCC(c2nc(C#Cc3cccc4ccccc34)cs2)CC1 [Example I-50, 2-[5-Methyl-3-(trifluoromethyl)-1H-pyrazol-1-yl]-1-{4-[4-(naphthalen-1-ylethynyl)-1,3-thiazol-2-yl]piperidin-1-yl}ethanone] | 4.5 | ≥ 70 | 4.66 | ≥ 70 | – |
| Cc1cc(C(F)(F)F)nn1CC(=O)N1CCC(c2nc(C#Cc3cccnc3)cs2)CC1 [Example I-51, 2-[5-Methyl-3-(trifluoromethyl)-1H-pyrazol-1-yl]-1-{4-[4-(pyridin-3-ylethynyl)-1,3-thiazol-2-yl]piperidin-1-yl}ethanone] | 2.68 | ≥ 70 | – | ≥ 70 | – |
| Cc1cc(C(F)(F)F)nn1CC(=O)N1CCC(c2nc(C#CCc3ccccc3)cs2)CC1 [Example I-52, 2-[5-Methyl-3-(trifluoromethyl)-1H-pyrazol-1-yl]-1-{4-[4-(3-phenylprop-1-yn-1-yl)-1,3-thiazol-2-yl]piperidin-1-yl}ethanone] | 3.88 | ≥ 70 | – | – | – |
| Cc1cc(C(F)(F)F)nn1CC(=O)N1CCC(c2nc(CCc3ccccc3)cs2)CC1 [Example I-53, 2-[5-Methyl-3-(trifluoromethyl)-1H-pyrazol-1-yl]-1-{4-[4-(2-phenylethyl)-1,3-thiazol-2-yl]piperidin-1-yl}ethanone] | – | ≥ 70 | – | ≥ 70 | 3.79 |
| Cc1cc(C(F)(F)F)nn1CC(=O)N1CCC(c2nc(CCCC(C)c3ccccc3)cs2)CC1 (stereo not shown) [Example I-80, 2-[5-Methyl-3-(trifluoromethyl)-1H-pyrazol-1-yl]-1-{4-[4-(4-phenylpentyl)-1,3-thiazol-2-yl]piperidin-1-yl}ethanone] | 4.77 | ≥ 70 | – | ≥ 70 | – |
| Cc1cc(C(F)(F)F)nn1CC(=O)N1CCC(c2nc(CCc3cccc4ccccc34)cs2)CC1 [Example I-81, 2-[5-Methyl-3-(trifluoromethyl)-1H-pyrazol-1-yl]-1-(4-{4-[2-(naphthalen-1-yl)ethyl]-1,3-thiazol-2-yl}piperidin-1-yl)ethanone] | 4.37 | ≥ 70 | – | ≥ 70 | – |
| Cc1cc(C(F)(F)F)nn1CC(=S)N1CCC(c2nc(/C=C/c3ccccc3)cs2)CC1 [Example I-93, 2-[5-Methyl-3-(trifluoromethyl)-1H-pyrazol-1-yl]-1-(4-{4-[(E)-2-phenylethenyl]-1,3-thiazol-2-yl}piperidin-1-yl)ethanethione] | 4.65 | ≥ 70 | – | ≥ 70 | – |
| Cc1cc(C(F)(F)F)nn1CC(=O)N1CCC(c2nc(C#C[Si](C)(C)C)cs2)CC1 [Example I-98, 2-[5-Methyl-3-(trifluoromethyl)-1H-pyrazol-1-yl]-1-(4-{4-[(trimethylsilyl)ethynyl]-1,3-thiazol-2-yl}piperidin-1-yl)ethanone] | 4.28 | ≥ 70 | – | ≥ 70 | – |
| COc1ccc(C#Cc2csc(C3CCN(C(=O)Cn4nc(C(F)(F)F)cc4C)CC3)n2)cc1 [Example I-100, 1-(4-{4-[(4-Methoxyphenyl)ethynyl]-1,3-thiazol-2-yl}piperidin-1-yl)-2-[5-methyl-3-(trifluoromethyl)-1H-pyrazol-1-yl]ethanone] | 3.79 | ≥ 70 | – | ≥ 70 | – |
| COc1ccccc1C#Cc1csc(C2CCN(C(=O)Cn3nc(C(F)(F)F)cc3C)CC2)n1 [Example I-103, 1-(4-{4-[(2-Methoxyphenyl)ethynyl]-1,3-thiazol-2-yl}piperidin-1-yl)-2-[5-methyl-3-(trifluoromethyl)-1H-pyrazol-1-yl]ethanone] | 3.67 | ≥ 70 | – | ≥ 70 | – |
